This experiment deals with NAD(P)H dehydrogenase [quinone] 1 (Mus musculus) (UniProt Q64669). Description: Induction of NQO1 activity in mouse Hepa1c1c7 cells assessed as concentration required to double specific enzyme activity after 48 hrs. The experiment is classed as cell-based.
NAD(P)H dehydrogenase [quinone] 1 (Mus musculus), sequence (Q64669 whole entry): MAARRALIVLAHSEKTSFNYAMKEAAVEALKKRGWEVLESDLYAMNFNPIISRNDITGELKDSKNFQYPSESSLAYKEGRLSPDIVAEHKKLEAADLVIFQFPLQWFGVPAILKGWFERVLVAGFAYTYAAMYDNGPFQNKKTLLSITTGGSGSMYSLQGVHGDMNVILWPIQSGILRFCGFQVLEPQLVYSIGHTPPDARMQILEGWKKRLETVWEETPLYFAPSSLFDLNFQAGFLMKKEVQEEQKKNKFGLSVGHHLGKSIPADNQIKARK

For `C#C[C@]12C=C(C#N)C(=O)C=C1[C@@]1(C)C=C(C#N)C(=O)C(C)(C)[C@@H]1CC2` (racemic), the CD was 1 nM. For the molecule `C#C[C@]12C=C(C#N)C(=O)C=C1[C@@]1(C)C=C(C#N)C(=O)[C@@](C)(CO)[C@@H]1CC2` (racemic), the CD came to 2.2 nM.

For the origin of these results see ChEMBL document CHEMBL2429738, “Synthesis and biological evaluation of biotin conjugates of (±)-(4bS,8aR,10aS)-10a-ethynyl-4b,8,8-trimethyl-3,7-dioxo-3,4b,7,8,8a,9,10,10a-octahydro-phenanthrene-2,6-dicarbonitrile, an activator of the Keap1/Nrf2/ARE pathway, for the isolation of its protein targets” (Bioorg Med Chem Lett, 2013).
